According to the NIST ThermoML archive (doi:10.1016/j.jct.2013.05.006):
± gives the expanded uncertainty stated by the source.

Assay: activity coefficient (dimensionless); of the first substance listed, at infinite dilution; xn = mol fraction of the nth substance listed
Settings: 298 K; 101 kPa; Liquid; Chromatography; x1 = 0

| Structure (SMILES) | activity coefficient |
| --- | --- |
| c1ccc(-c2ccccc2)cc1 [biphenyl] + NC=O | 1320 ± 150 |
| Clc1ccccc1Cl [1,2-dichlorobenzene] + NC=O | 159 ± 17 |
| Clc1ccccc1 [chlorobenzene] + NC=O | 94 ± 16 |
| Fc1ccccc1 [fluorobenzene] + NC=O | 54 ± 6 |
| c1ccc2ccccc2c1 [naphthalene] + NC=O | 533 ± 63 |
| c1ccccc1 [benzene] + NC=O | 53 ± 6 |
| Brc1ccccc1 [bromobenzene] + NC=O | 107 ± 13 |
| Cc1ccccc1 [toluene] + NC=O | 81 ± 8 |
